We go through 21 compounds from paper PMC13408504, “Design, structure-based optimization and antiviral evaluation of potent inhibitors for the macrodomain Mac1 of SARS-CoV-2” (Nature Communications, 2026).

Where “and” joins values, the source holds several entries; their conditions need not be identical. Identical values can stand only once. Where only a bound is given, the exact number is not on record here.

For series [1] the following is noted: pH 7.3.
A further series has as its system pig liver esterase (PLE). As to conditions: pH 7.3.
The next series in a line: in vitro. As to conditions: human, pH 7.4.
Another series is described as follows: physchem. As to conditions: pH 7.3.
Series [2] relates to Mac1. Conditions: cited from earlier work.
Series [3] has as its target T1, wildtype Mac1 (Severe acute respiratory syndrome coronavirus 2, UniProt P0DTD1). In kind it is biochemical, SARS-CoV-2.
Series [4] concerns the target NADase from Neurospora crassa (Neurospora crassa, UniProt Q7S936). The class given is biochemical.
A further series addresses human MacroD1 (Homo sapiens, UniProt Q9BQ69). The class given is biochemical.
A further series addresses human MacroD2 (Homo sapiens, UniProt A1Z1Q3). In kind it is biochemical.
Series [5] has as its target T2, Mac1 of SARS-CoV-2 (Severe acute respiratory syndrome coronavirus 2, UniProt P0DTD1). The series can be described thus: Fluorimetric microplate assay for Mac1 activity (α-NAD+ hydrolysis, post-reaction derivatisation). The class given is biochemical.
Series [6] deals with T2, Mac1 of SARS-CoV-2. The series can be described thus: biochemical. Conditions: pIC50 (±SD) for Mac1 inhibition.
Series [7] has as its target T1, wildtype Mac1. In kind it is binding.
Series [8] deals with Mac1. Conditions: cited from earlier work. The source holds these as a separate data set.
Series [9] relates to cellular NAD+ levels in CaLu-3 cells. The series can be described thus: Quantification of cellular NAD+ (enzymatic cycling kit, normalised to protein). The class given is cell-based.

For orientation: half-life means the time in which the quantity being followed falls by half. High values mean slow decline, low ones rapid decline. In general, IC50 refers to the concentration that inhibits the measured activity by half.

Sequence of human MacroD1 (Q9BQ69 whole entry): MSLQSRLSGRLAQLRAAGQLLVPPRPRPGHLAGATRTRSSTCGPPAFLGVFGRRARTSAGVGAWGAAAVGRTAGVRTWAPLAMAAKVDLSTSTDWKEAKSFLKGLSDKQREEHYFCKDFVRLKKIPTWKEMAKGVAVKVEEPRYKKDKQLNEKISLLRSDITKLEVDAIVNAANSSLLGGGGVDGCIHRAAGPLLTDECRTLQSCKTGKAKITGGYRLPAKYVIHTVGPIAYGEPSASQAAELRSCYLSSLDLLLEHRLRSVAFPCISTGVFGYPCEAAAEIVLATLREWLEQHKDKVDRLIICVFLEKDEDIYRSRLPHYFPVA
Sequence of human MacroD2 (A1Z1Q3 whole entry): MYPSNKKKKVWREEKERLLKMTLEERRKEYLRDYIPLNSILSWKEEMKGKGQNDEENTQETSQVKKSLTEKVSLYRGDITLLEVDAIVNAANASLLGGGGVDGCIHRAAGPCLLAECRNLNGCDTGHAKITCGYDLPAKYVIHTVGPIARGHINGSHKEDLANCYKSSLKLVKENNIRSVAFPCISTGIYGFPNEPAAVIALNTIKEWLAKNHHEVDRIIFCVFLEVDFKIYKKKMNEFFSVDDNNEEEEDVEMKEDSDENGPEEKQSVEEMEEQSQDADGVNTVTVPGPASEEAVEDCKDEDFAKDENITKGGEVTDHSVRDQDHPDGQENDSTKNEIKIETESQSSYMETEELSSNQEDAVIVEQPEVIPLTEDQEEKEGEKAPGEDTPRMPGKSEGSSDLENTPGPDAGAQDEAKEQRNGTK
Sequence of NADase from Neurospora crassa (Q7S936 20-243 limits assumed): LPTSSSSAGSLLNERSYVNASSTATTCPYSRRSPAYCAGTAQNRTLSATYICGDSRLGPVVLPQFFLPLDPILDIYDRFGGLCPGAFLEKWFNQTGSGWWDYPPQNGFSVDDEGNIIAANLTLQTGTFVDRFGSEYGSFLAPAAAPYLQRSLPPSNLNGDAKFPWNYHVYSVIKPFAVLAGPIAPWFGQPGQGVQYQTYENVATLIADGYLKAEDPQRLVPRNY

With `CCCCCCCCCCCC(=O)Oc1ccc(COP(=O)(OC)OP(=O)(O)OC[C@H]2O[C@@](C#N)(c3ccc4c(N)ncnn34)[C@H](O)[C@@H]2O)cc1` (stereo partly drawn) [compound 5, C11-AB-β-methyl-GS-441524-DP], the “decrease of β-NAD+ 2 levels” value with CaLu-3 cells was 62%. For the same compound, in the series with CaLu-3 cells (human, pH 7.4), the “GS-441524-MP 40 formed, share of the total of detectable 40 and deprotected compound” value came to 24%; the intracellular concentration fell in the range of 0.3 to 0.4 µM. The “time at which incipient decomposition to GS-441524-MP 40 was discovered” value in [1] stood at 30 s. The “hydrolysis with pig liver esterase (in words)” value with pig liver esterase (PLE) is recorded as “successful”. For the same compound, the CC50 in the series “in vitro” was greater than 50 µM. In “physchem”, the half-life is 2.54 days.

`N#C[C@@]1(c2ccc3c(N)ncnn23)O[C@H](CO)[C@@H](O)[C@H]1O` [compound 3, GS-441524]: the “affinity for Mac1 compared with ADPR 1 (in words)” value with Mac1 [2] was “affinity similar to ADPR 1”.

`NC(=O)c1ccc[n+]([C@@H]2O[C@H](COP(=O)([O-])OP(=O)(O)OC[C@H]3O[C@@H](n4cnc5c(N)ncnc54)[C@H](O)[C@@H]3O)[C@@H](O)[C@H]2O)c1` [compound 2, β-NAD^+]: the “hydrolysis by Mac1 (in words)” value at wildtype Mac1 [3] was “intact”. The “hydrolysis by NADase (in words)” value in [4] is recorded as “hydrolyzed”.

Regarding `COP(=O)(O)OP(=O)(O)OC[C@H]1O[C@@](C#N)(c2ccc3c(N)ncnn23)[C@H](O)[C@@H]1O` [compound 4, β-methyl-GS-441524-DP], the “time at which cellular uptake reached an equilibrium” value with CaLu-3 cells (human, pH 7.4) is on record as 15 min.

As to `Nc1ncnc2c1nc(Br)n2C1OC(COP(=O)(O)OP(=O)(O)OCC2OC(O)C(O)C2O)C(O)C1O` (stereo not drawn) [compound 13, 8-Br-ADPR], the “Inhibition of human MacroD1 (in words)” value on human MacroD1 is “low micromolar range”. Also, the “Inhibition of human MacroD2 (in words)” value at human MacroD2 is “low micromolar range”.

In the case of `Nc1ncnc2c1ncn2[C@@H]1O[C@H](COP(=O)(O)OP(=O)(O)S)[C@@H](O)[C@H]1O` (stereo partly drawn) [compound 35, adenosine-5′-O-(2-thiodiphosphate)], on Mac1 of SARS-CoV-2 [5], the IC50 was 3890 µM.

As to `O=c1[nH]cnc2c1ncn2C1OC(COP(=O)(O)OP(=O)(O)OCC2OC(O)C(O)C2O)C(O)C1O` (stereo not drawn) [compound 10, inosine-5′-O-diphosphoribose], the “Inhibition of Mac1 (in words)” value at Mac1 of SARS-CoV-2 [5] is on record as “did not inhibit Mac1”.

On Mac1 of SARS-CoV-2 [5], `N#C[C@@]1(c2ccc3c(N)ncnn23)O[C@H](COP(=O)(O)O)[C@@H](O)[C@H]1O` [compound 40, GS-441524-monophosphate] registered an IC50 of 43.7 µM.

`Nc1ncnc2c1nc(-c1ccsc1)n2C1OC(COP(=O)(O)OP(=O)(O)OCC2OC(O)C(O)C2O)C(O)C1O` (stereo not drawn) [compound 12, 8-thiophen-3-yl-ADPR] showed an IC50 against Mac1 of SARS-CoV-2 [6] of 251 µM.

For `Nc1ncnc2c1ncn2[C@@H]1O[C@H](CO)[C@@H](O)[C@H]1O` [compound 38, adenosine], the “Inhibition of Mac1 (in words)” value on Mac1 of SARS-CoV-2 [5] is “showed no inhibition”.

In the case of `Nc1ncnc2c1ncn2[C@@H]1O[C@H](COP(=O)(O)O)[C@@H](O)[C@H]1O` [compound 39, AMP], the “Inhibition of Mac1 (in words)” value at Mac1 of SARS-CoV-2 [5] is on record as “showed no inhibition”.

On wildtype Mac1 [7], `Nc1ncnc2c1ncn2[C@H]1C[C@H](O)[C@@H](COP(=O)(O)OP(=O)(O)OC[C@H]2OC(O)[C@H](O)[C@@H]2O)O1` (stereo partly drawn) [compound 16, 2′-deoxy-ADPR] registered a TΔS of -5.9 ± 0.2 kcal/mol and a ΔH of -12.5 ± 0.2 kcal/mol.

As to `Nc1ncnc2c1ncn2[C@@H]1O[C@H](COP(=O)(O)OP(=O)(O)O[C@H]2O[C@H](CO)[C@@H](O)[C@H](O)[C@H]2O)[C@@H](O)[C@H]1O` [compound 23, ADP-glucose], the “Inhibition of Mac1 (in words)” value on Mac1 of SARS-CoV-2 [5] is on record as “no detectable inhibition”.

Regarding `Nc1ncnc2c1ncn2[C@@H]1O[C@H](COP(=O)(O)OP(=O)(O)O)[C@@H](O)[C@H]1O` [compound 18, ADP], at Mac1 of SARS-CoV-2 [5], the “pIC50 (±SD) for Mac1 inhibition” value was 2.44 and 2.3 ± 0.1. Besides, the “thermal stabilisation of Mac1 (in words)” value in the series on Mac1 [8] is listed as “not thermally stabilised”.

`Nc1ncnc2c1ncn2[C@@H]1O[C@H](COP(=O)(O)CP(=O)(O)O)[C@@H](O)[C@H]1O` [compound 34, α-β methylene-ADP]: the “Inhibition of Mac1 (in words)” value at Mac1 of SARS-CoV-2 [5] was “none of these compounds inhibited Mac1”.

With `Nc1ncnc2c1ncn2[C@@H]1O[C@H](COP(=O)(O)OP(=O)(O)OC[C@H]2O[C@@H](O)C(O)[C@H]2O)C(O)[C@@H]1OP(=O)(O)O` (stereo partly drawn) [compound 15, ADPR-2′-phosphate], at wildtype Mac1 [7], the TΔS was -5.4 ± 1.2 kcal/mol and the ΔH was -11.5 ± 0.2 kcal/mol. Moreover, the “affinity for Mac1 compared with ADPR 1 (in words)” value in the series with Mac1 [2] was “slightly higher affinity than ADPR 1”.

In turn, `Nc1ncnc2c1ccn2C1OC(COP(=O)(O)OP(=O)(O)OCC2OC(O)C(O)C2O)C(O)C1O` (stereo not drawn) [compound 22, 7-Deazaadenosine DP ribose] gave a 50% inhibitory concentration (IC50) against Mac1 of SARS-CoV-2 [5] of 14.5 µM.

On to `O=C(/C=C/c1cccnc1)NCCCCC1CCN(C(=O)c2ccccc2)CC1` [FK866], for which the “reduction of cellular NAD levels” value in series [9] is ~ 90%.

Take `Nc1ncnc2c1ncn2[C@@H]1O[C@H](COP(=O)(O)OP(=O)(O)OC2CCCC2)[C@@H](O)[C@H]1O` [compound 27, β-cyclopentyl-ADP]: the “pIC50 (±SD) for Mac1 inhibition” value against Mac1 of SARS-CoV-2 [5] came to 2.79.

`Nc1ncnc2c1cc(Br)n2C1OC(COP(=O)(O)OP(=O)(O)OCC2OC(O)C(O)C2O)C(O)C1O` (stereo not drawn) [compound 14, 8-Br-7-deaza-ADPR]: at Mac1 of SARS-CoV-2 [5], the midpoint of inhibition, the IC50, lay at 38 µM.

Take `Nc1nc(F)nc2c1ncn2C1OC(COP(=O)(O)OP(=O)(O)OCC2OC(O)C(O)C2O)C(O)C1O` (stereo not drawn) [compound 11, 2-F-ADPR]: half-maximal inhibition at Mac1 of SARS-CoV-2 [5] (IC50) was put at 191 µM.
